The text below walks through data of patent US9751907B2, “Arbekacin derivative, and production and use thereof” (MEIJI SEIKA PHARMA CO., LTD., priority 2013, dated 2017).

The nature of series [1]: Storage stability of the solid at 40° C. and 75% humidity, related substances analysed by HPLC. Type of series: physicochemical. As to conditions: for Amount of related substances increased: related substance content: 40° C., 75% RH. On the procedure:
The HPLC analysis conditions were as described in (3) Dibekacin and (4) Related substance in the purity test for arbekacin sulfate in the Japanese Pharmacopoeia Sixteen Edition.
Specifically, arbekacin free base was stored at 40° C. and a humidity of 75% for 1 month and 2 months, and the amount of related substances changed was analyzed by HPLC.

A short description of series [2]: Moisture-absorbing properties on storage at 40° C. at defined humidity. Type of series: physicochemical. As to conditions: stored at 40° C.

Each structure is given as a SMILES string. Bounds are passed on as bounds.

`NCC[C@H](O)C(=O)N[C@@H]1C[C@H](N)[C@@H](O[C@H]2O[C@H](CN)CC[C@H]2N)[C@H](O)[C@H]1O[C@H]1O[C@H](CO)[C@@H](O)[C@H](N)[C@H]1O` [arbekacin free base, Arbekacin]: the results for the “Amount of related substances increased: related substance content” value in series [1] (1-month storage) and in series [1] (2-month storage) were 1.7% and 4.3%, respectively. Besides, the “amount of the related substances changed (i.e., the amount increased)” value in series [1] (stored at 40° C. and a humidity of 75% for 1 month and 2 months) is not below 4%. In addition, the moisture-absorbing properties in series [2] (Humidity 12%) was 1.60; in series [2] (Humidity 22%), 4.62; in series [2] (Humidity 30%), 6.25; in series [2] (Humidity 43%) it was 7.54; in series [2] (Humidity 53%) it was 9.14.
